# According to patent US20050260637A1, “Drug screening” (priority 2004, published 2005):
# Like-named read-outs stand apart in the source and are kept apart here.
# T1: M2/M1 (hRRM2 and hRRM1 reconstituted RNR) (Homo sapiens, UniProt P31350)
# T1 construct: 6xHis; made in house
# T1 sequence (P31350 1-389): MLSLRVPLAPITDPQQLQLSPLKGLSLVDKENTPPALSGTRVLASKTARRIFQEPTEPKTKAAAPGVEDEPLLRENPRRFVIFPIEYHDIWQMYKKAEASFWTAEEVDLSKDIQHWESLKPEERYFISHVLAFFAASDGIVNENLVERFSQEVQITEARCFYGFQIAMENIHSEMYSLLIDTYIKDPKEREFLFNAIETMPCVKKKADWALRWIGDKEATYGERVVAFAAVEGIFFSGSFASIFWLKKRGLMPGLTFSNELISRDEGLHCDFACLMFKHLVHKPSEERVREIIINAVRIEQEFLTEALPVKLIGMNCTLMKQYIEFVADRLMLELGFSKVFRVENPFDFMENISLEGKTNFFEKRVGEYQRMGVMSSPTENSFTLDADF
# T2: p53R2/M1 (p53R2 and hRRM1 reconstituted RNR) (Homo sapiens, UniProt Q7LG56)
# T2 construct: 6xHis; made in house
# T2 sequence (Q7LG56 1-351): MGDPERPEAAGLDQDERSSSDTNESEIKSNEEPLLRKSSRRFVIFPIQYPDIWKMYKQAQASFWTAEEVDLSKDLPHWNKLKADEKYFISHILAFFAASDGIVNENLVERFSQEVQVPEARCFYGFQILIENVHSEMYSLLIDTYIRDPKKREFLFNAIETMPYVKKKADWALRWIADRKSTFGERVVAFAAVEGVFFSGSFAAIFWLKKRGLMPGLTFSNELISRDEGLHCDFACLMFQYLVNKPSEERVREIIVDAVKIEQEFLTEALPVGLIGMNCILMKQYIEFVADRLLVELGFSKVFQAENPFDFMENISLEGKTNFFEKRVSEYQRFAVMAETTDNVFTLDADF
# T3: p53R2/hRRM1 (Homo sapiens, UniProt Q7LG56, Y124W)
# T3 construct: 6xHis; made in house; host or cells: E. coli BL21(DE3), pET-p53R2 template
# T3 sequence (Q7LG56 1-351 Y124W): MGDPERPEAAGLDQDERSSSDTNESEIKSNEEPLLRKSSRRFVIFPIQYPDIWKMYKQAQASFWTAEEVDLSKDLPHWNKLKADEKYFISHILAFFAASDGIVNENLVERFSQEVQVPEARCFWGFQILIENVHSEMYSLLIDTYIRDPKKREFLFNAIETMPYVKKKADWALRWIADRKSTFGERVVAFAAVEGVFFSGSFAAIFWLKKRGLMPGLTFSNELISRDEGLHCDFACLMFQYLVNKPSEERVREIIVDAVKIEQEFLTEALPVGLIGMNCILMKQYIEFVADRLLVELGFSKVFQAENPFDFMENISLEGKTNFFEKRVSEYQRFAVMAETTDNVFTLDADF
# Assays:
# [1] = target: T1, M2/M1 (hRRM2 and hRRM1 reconstituted RNR); experiment: In vitro RNR activity assay with reconstituted hRRM2/hRRM1 ([3H]CDP reduction); format: biochemical; settings: read-out: In vitro RR activity (IC50 ± sd) M2/M1
# Procedure: (§1) To reconstitute an active RNR, three 6′His-tag human RNR subunit proteins (hRRM2, p53R2, and hRRM1) were prokaryotically expressed, purified using Ni-resin affinity chromatography, and stored in 50 mM Tris-HCl, pH 7.4, 100 mM KCl at −70° C. according to standard techniques. The purified proteins were subjected to SDS-PAGE analysis. […] To reconstitute RNR, 1 μM of hRRM2 or p53R2 protein was incubated with 0.5 μM hRRM1 protein in multiple-well plates. The reconstitute RNR was tested for RNR activity according to standard techniques.
# (§2) Each compound of various concentration was mixed with the purified hRRM2 and hRRM1, or p53R2 and hRRM1 at room temperature for 30 minutes. An enzymatic reaction buffer was then added to the mixture to reach a final volume of 100 μl and incubated at 37° C. for 30 minutes. The reaction buffer contained […] [^3H] CDP, 50 mM HEPES pH 7.2,6 mM DTT, 4 mM MgOAC, 2 mM ATP, 0.05 mM CDP, 100 mM KCl, and 0.24 mM NADPH. […] FeCl3 could be added to the buffer as an iron source. After dephosphorylation, the supernatant of each reaction mixture was analyzed by an HPLC-connected radioactivity detector. IC50 values were calculated by the non-linear regression equations: f (x)=(a-d)/[1+(x/c)^b]+d.
# [2] = tested on: T4, RNR containing hRRM2 or p53R2; experiment: In vitro RNR activity assay, both reconstituted RNRs compared (average, selective index, comparison in words); format: biochemical, human; settings: for IC50: average of M2/M1 and p53R2/M1, read-out: In vitro RR activity (IC50) Average
# T4 construct: In vitro RR activity (IC50) Average; other: compound in 1% DMSO; average of M2/M1 and p53R2/M1; other: compound in 2.5% DMSO; other: compound in dH2O + FeCl3; other: compound in dH2O; Inhi; fused on or other part: 6xHis tag on each subunit
# Procedure: as §1, §2
# The above-described four SB-HSCs were tested for their inhibitory potency and subunit-selectivity by the in vitro RNR assay in the same manner descried above. The dose-dependent inhibition curves were found.
# [3] = target: T2, p53R2/M1 (p53R2 and hRRM1 reconstituted RNR); experiment: In vitro RNR activity assay with reconstituted p53R2/hRRM1 ([3H]CDP reduction); format: biochemical; settings: read-out: In vitro RR activity (IC50 ± sd) p53R2/M1
# Procedure: as §1, §2
# [4] = tested on: tyrosyl radicals of both RNR small subunits (hRRM2, p53R2); experiment: EPR spectroscopy of tyrosyl radical after incubation with compound; format: biochemical, human; settings: protein incubated with compound at room temperature for 30 minutes; EPR at 20 K
# Procedure: Electron paramagnetic resonance (EPR) spectroscopy was then conducted. Prior to EPR, protein samples were incubated with each of the above-described compounds at room temperature for 30 minutes. EPR parameters were set as following: T=20 K, microwave frequency=9.376 GHz, microwave power=0.5 mW, modulation amplitude 4 gauss, modulation frequency 100 KHz. […] The EPR analysis was conduced in the presence of irons and the reductants.
# p53R2/hRRM1 = target: T3, p53R2/hRRM1; experiment: RNR activity of mutated p53R2 proteins with hRRM1 (modified [3H]CDP reduction assay); format: biochemical
# Procedure: The activities of hRRM2/hRRM1 and p53R2/hRRM1 were measured using a modified [^3H] CDP reduction assay. The reaction mixture contained 0.125 μM [^3H] CDP (0.3 μCi), 50 mM of HEPES (pH 7.2), 6 mM DTT, 4 mM MgOAC, 2 mM ATP, 0.05 mM CDP, 100 mM KCl, 0.24 mM NADPH. The enzyme activity was measured in the presence of 0.5 μM of M1 protein and 1 μM of hRRM2 or p53R2 proteins with a total sample volume of 100 μl. After incubation at 37° C. for 15-30 minutes and dephosphorylation with phosphodiesterase, the supernatant was analyzed by HPLC using a C-18 reversed phase column to separate [^3H] cytidine and [^3H] deoxycytidine. Radioactivity of the HPLC aliquots was measured with a β-RAM-2B Flow-through radioisotope beta/gamma detector (IN/US Systems, Tampa, Fla.). The enzyme activity was measured as relative activity of dCDP/(CDP+dCDP)% (i. e., the percentage of dCDP of all ribonucleoside diphosphates and deoxyribonucleoside diphosphates). Results were normalized against those of wild type proteins, which were considered having 100% conversion of CDP to dCDP. Each value is the average of two to three determinations with deviations <0.3%.
Molecule,IC50 ([1]; compound in 1% DMSO) [µM],IC50 ([1]; compound in 2.5% DMSO) [µM],IC50 ([1]; compound in dH2O + FeCl3) [µM],IC50 ([1]; compound in dH2O) [µM],Inhibition of reconstituted RNR activity (in words) [2],IC50 ([2]; compound in 1% DMSO) [µM],IC50 ([2]; compound in 2.5% DMSO) [µM],IC50 ([2]; compound in dH2O + FeCl3) [µM],IC50 ([2]; compound in dH2O) [µM],IC50 ([3]; compound in 1% DMSO) [µM],IC50 ([3]; compound in 2.5% DMSO) [µM],IC50 ([3]; compound in dH2O + FeCl3) [µM],IC50 ([3]; compound in dH2O) [µM],Quenching of tyrosyl radical EPR signal [4],"Enzyme activity retained, fraction of the wild type protein (p53R2/hRRM1)"
"NC(=O)NO [HU, Hydroxyurea]",148 ± 7.34,155 ± 6.59,556 ± 24.1,165 ± 7.95,significantly inhibited the activity of RNR containing hRRM2 or p53R2,153,150,1270,178,159 ± 6.82,146 ± 6.06,1990 ± 71.2,190 ± 6.43,quenched the tyrosyl radicals of both RNR small subunits,–
"Y124W-p53R2: p53R2 mutant with Tyr124 replaced by tryptophan (SEQ ID NO: 19) (protein, listed as Homo sapiens) MGDPERPEAAGLDQDERSSSDTNESEIKSNEEPLLRKSSRRFVIFPIQYPDIWKMYKQAQASFWTAEEVDLSKDLPHWNKLKADEKYFISHILAFFAASDGIVNENLVERFSQEVQVPEARCFWGFQILIENVHSEMYSLLIDTYIRDPKKREFLFNAIETMPYVKKKADWALRWIADRKSTFGERVVAFAAVEGVFFSGSFAAIFWLKKRGLMPGLTFSNELISRDEGLHCDFACLMFQYLVNKPSEERVREIIVDAVKIEQEFLTEALPVGLIGMNCILMKQYIEFVADRLLVELGFSKVFQAENPFDFMENISLEGKTNFFEKRVSEYQRFAVMAETTDNVFTLDADF",–,–,–,–,–,–,–,–,–,–,–,–,–,–,1/3
